The text below walks through data of paper PMC10059965, “Tsaokoic Acid: A New Bicyclic Nonene from the Fruits of Amomum tsao-ko with Acetylcholinesterase Inhibitory Activity” (Molecules, 2023).

For assay [1], the target named is T1, AChE (Homo sapiens, UniProt P22303). Kind of assay: biochemical. As to conditions: for inhibition at 2 µM: concentration 2 μM; for inhibition at 10 µM: concentration 10 μM; for inhibition at 50 µM: concentration 50 μM.
The conditions of assay [2]: previous studies; cited from earlier work.
For assay [3], the target named is T1, AChE. The following applies: previous in vitro and in vivo reports; cited from earlier work.
Setting [4] is: read-out: Inhibition (%) of AChE.
Where [5] appears, read: Ellman method, pH 8.0, triplicate, read-out: IC50 (AChE-inhibitory activity).

Where two headings read alike, the source gives them in different places.

T1 sequence (P22303 32-614): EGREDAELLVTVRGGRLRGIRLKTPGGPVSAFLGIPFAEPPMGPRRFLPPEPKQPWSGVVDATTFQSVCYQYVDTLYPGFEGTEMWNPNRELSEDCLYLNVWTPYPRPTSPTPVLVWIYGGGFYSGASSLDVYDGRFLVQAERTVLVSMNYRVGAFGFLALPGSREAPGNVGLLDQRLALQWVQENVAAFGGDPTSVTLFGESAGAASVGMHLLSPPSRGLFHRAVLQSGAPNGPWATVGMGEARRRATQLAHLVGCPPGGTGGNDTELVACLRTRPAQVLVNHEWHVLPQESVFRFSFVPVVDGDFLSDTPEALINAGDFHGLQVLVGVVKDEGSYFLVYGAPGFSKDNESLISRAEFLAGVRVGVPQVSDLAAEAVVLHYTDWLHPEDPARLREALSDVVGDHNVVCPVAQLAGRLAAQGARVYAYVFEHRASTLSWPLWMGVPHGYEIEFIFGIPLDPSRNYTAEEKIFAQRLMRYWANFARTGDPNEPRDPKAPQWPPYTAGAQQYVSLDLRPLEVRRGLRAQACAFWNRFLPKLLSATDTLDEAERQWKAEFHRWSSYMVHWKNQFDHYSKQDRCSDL

As a reminder, the inhibition is the relative decrease from the control value, in per cent. Consider `COc1ccc2cc3[n+](cc2c1OC)CCc1cc2c(cc1-3)OCO2` [berberine, reference compound], for which, in assay [1] (setting [4]), the inhibition at 0.04 µM is 20.7%, the inhibition at 0.2 µM amounted to 73.4% and the inhibition at 1 µM is 95.8%.
In general, IC50 refers to the concentration needed to halve the response being measured. Turning to `O=CC1=CC[C@@H](O)[C@H]2CCC[C@@H]12` (relative stereo) [Compound 2, rel-(1R,5R,6S)-5-hydroxybicyclo[4,3,0]non-2-ene-2-carboxaldehyde], in assay [1] (setting [5]), the half-maximal inhibitory concentration (IC50) came to 41.7 µM. In assay [1], the inhibition at 2 µM is -6.07%, the inhibition at 10 µM stood at 7.74% and the inhibition at 50 µM was 62.1%. The Antifungal activity result in assay [2] is listed as “weak antifungal activity”.
For `COc1cc(C=O)ccc1O` [Compound 3, vanillin], in assay [1], the IC50 worked out at 39.3 µM, the inhibition at 2 µM was -1.88% and the inhibition at 10 µM came out at 6.07%. The AChE-inhibitory activities entry in assay [3] was “has AChE-inhibitory activities”.
As for `COc1cc(/C=C/C=C/C(=O)CCc2ccc(O)cc2)ccc1O` [Compound 4, tsaokoarylone], in assay [1] (setting [5]), the IC50 was determined as 31.1 µM. In addition, in assay [1], the inhibition at 2 µM was -11.9%, the inhibition at 10 µM is 30.8% and the inhibition at 50 µM was determined as 78.7%.
`O=C(O)C1=CC[C@@H](O)[C@H]2CCC[C@@H]12` (relative stereo) [Compound 1, rel-(1R,5R,6S)-5-hydroxybicyclo[4.3.0]non-2-ene-2-carboxylic acid]: in assay [1] (setting [5]), the IC50 was determined as 32.8 µM. Moreover, in assay [1], the inhibition at 2 µM was 2.09%, the inhibition at 10 µM was 29.5% and the inhibition at 50 µM amounted to 70.9%.
